According to US20120230991A1, “METHODS AND COMPOUNDS FOR ENHANCING ANTI-CANCER THERAPY” (priority 2008, published 2012):

Key:
[1] = test system: A549 Human NSCLC Cell Lines; assay: Relative cell numbers of A549 cells (wild type, shControl, Axl/Mer knockdown) after 48 hours of drug; assay type: cell-based; conditions: for sensitivity of the shAxl9-D3 Axl knockdown clone: A549 shAxl9-D3, 48 hours; for IC50: 48 hours, relative cell number
[2] = test system: A549 cells; assay: Induction of apoptosis / cell death in A549 knockdown cells treated with doxorubicin; assay type: cell-based, human
[3] = test system: A549 Human NSCLC Cell Lines; assay: BrdU incorporation ELISA, relative cell proliferation of A549 cells, 48 hours; assay type: cell-based; conditions: for sensitivity of A549 cells with inhibition of Mer expression: A549 Mer1-G8 knockdown, BrdU; for IC50: BrdU assay
Method: The relative cell proliferation was determined via a BrdU incorporation ELISA. IC50 values were determined by non-linear regression of data from at least three independent experiments performed in triplicate (see Table 3).

[4] = test system: 697 Human B-ALL Cell Lines; assay: MTT assay, chemosensitivity of 697 cells (wild type, shControl, Mer knockdown), 48 hours; assay type: cell-based
Method: Inhibition of Mer expression results in increased chemosensitivity in 697 cells. […] IC50 values were determined by non-linear regression of data from at least three independent experiments performed in triplicate, as shown in Table 1.

[5] = test system: G12 astrocytoma cells; assay: MTT assay, chemosensitivity of G12 astrocytoma control and knockdown cells; assay type: cell-based; conditions: MTT
Method: (§1) G12 control (shControl) and knockdown cells (shMer1 and shMer4; shAxl8 and shAxl9) were plated in 96-well plates at concentrations determined to allow linear growth over 3 days: A) cells were treated with varying concentrations of temozolomide and relative cell number was assessed 48 h after treatment by colorimetric assessment/MTT assay. Error bars denote experiments performed in triplicate. A172 control (shControl) and knockdown cells (shMer1A and shMer1B; shAxl8 and shAxl9) were plated in 96-well plates at concentrations determined to allow linear growth over 3 days: B) cells were treated with varying concentrations of carboplatin and relative cell number was assessed 48 h after treatment by colorimetric assessment/MTT assay. Error bars represent three independent experiments performed in triplicate.
(§2) Table 4 provides the IC50 with 95% CI for G12 and A172 control and Mer and Axl knockdown cells, in response to chemotherapy. In Table 4, ‘NR’ indicates an IC50 was never reached. ‘IND’ represents that that CI was indeterminate. The IC50 for each knockdown line was compared to the control line, and an ‘*’ represents that the comparison is statistically different while an ‘NS’ represents that there was no statistically significant difference because either the CI was indeterminate (as with the G12 shAxl9 line treated with carboplatin) or it overlapped with the shControl CI.

[6] = test system: A172 glioblastoma cells; assay: MTT assay, chemosensitivity of A172 control and knockdown cells; assay type: cell-based; conditions: MTT
Method: as §1, §2

[7] = test system: 697 cells; assay: Flow cytometry of apoptotic and dead cells (YO-PRO-1 / propidium iodide), 697 cells; assay type: cell-based, human; conditions: 697 shMer1A vs shControl, 48 hours
Method: Apoptotic and dead cells were identified by flow cytometric analysis of cells stained with YO-PRO®-1 and propidium iodide: A) representative flow cytometry profiles; B) mean values and standard errors derived from 3 independent experiments.
Cultures of shControl or shMer1A 697 cells were exposed to 6-MP, VP-16, or medium only for 48 hours: A) Apoptotic and dead cells were identified by flow cytometric analysis of cells stained with YO-PRO®-1 and propidium iodide: Representative flow cytometry profiles; B) the percentages of apoptotic and dead cells are indicated in lower-right and upper-right quadrants, respectively. Mean values and standard errors derived from 3 independent experiments. Results were tested for significance using two-way ANOVA and Bonferroni posttests to compare shControl and shMer1A cells at equivalent drug concentrations.

[8] = Homo sapiens, A549, 48 h, A549 Wild Type
[9] = Homo sapiens, A549, 48 h, A549 shAxl8-G5 (Axl knockdown)
[10] = Homo sapiens, A549, 48 h, A549 shAxl9-D3 (Axl knockdown)
[11] = Homo sapiens, A549, 48 h, A549 shControl
[12] = Homo sapiens, A549, 48 h, A549 shMer1-G8 (Mer knockdown)
[13] = Homo sapiens, A549, 48 h, A549 Wild Type, 48 hours
[14] = Homo sapiens, A549, 48 h, A549 shAxl8-G5, 48 hours
[15] = Homo sapiens, A549, 48 h, A549 shAxl9-D3, 48 hours
[16] = Homo sapiens, A549, 48 h, A549 shControl, 48 hours
[17] = Homo sapiens, A549, 48 h, A549 shMer1-G8, 48 hours
[18] = 697 shMer1A (Mer knockdown) cells
[19] = 697 shMer1B (Mer knockdown) cells

IC50 [1, 8] [nM]	IC50 [1, 9] [nM]	IC50 [1, 10] [nM]	IC50 [1, 11] [nM]	IC50 [1, 12] [nM]	IC50 [3, 13] [nM]	IC50 [3, 14] [nM]	IC50 [3, 15] [nM]	IC50 [3, 16] [nM]	IC50 [3, 17] [nM]	SMILES	sensitivity of the shAxl9-D3 Axl knockdown clone [1]	sensitivity of A549 cells with inhibition of Mer expression ([3]; 48 hours)	IC50 ([4]; 697 Wild Type cells) [nM]	IC50 ([4]; 697 shControl cells) [nM]	IC50 [4, 18] [nM]	IC50 [4, 19] [nM]	induction of apoptotic cell death with Mer knockdown [7]	also measured
34.9	2.1	13	69.2	71.2	43.1	50	33.2	51.1	20.4	COc1cccc2c1C(=O)c1c(O)c3c(c(O)c1C2=O)C[C@@](O)(C(=O)CO)C[C@@H]3O[C@H]1C[C@H](N)[C@H](O)[C@H](C)O1 [DOXO, doxorubicin]	more sensitive	increased sensitivity	16.7	11.1	2.83	3.26		induction of apoptosis with inhibition of Axl ([2]; A549 Axl knockdown vs shControl): increased induction of apoptosis; level of cell death in Mer knockdown cells ([2]; A549 Mer knockdown cells, treated vs untreated): did not increase the level of cell death
										N.N.O=C([O-])C1(C(=O)[O-])CCC1.[Pt+2] [Carbo, carboplatin]		increased sensitivity						IC50 ([1]; A549 Wild Type): > 160000 nM; IC50 ([1]; A549 shAxl8-G5 (Axl knockdown)): 9130 nM; IC50 ([1]; A549 shControl): > 160000 nM; IC50 ([1]; A549 shMer1-G8 (Mer knockdown)): 93400 nM; IC50 ([5]; G12 shAxl8, 48 h): 280 nM; IC50 ([5]; G12 shAxl9, 48 h): 200 nM; IC50 ([5]; G12 shControl, 48 h): 47900 nM; IC50 ([5]; G12 shMer1, 48 h): 780 nM; IC50 ([5]; G12 shMer4, 48 h): 190 nM; IC50 ([3]; A549 Wild Type, 48 hours): 19800 nM; IC50 ([3]; A549 shAxl8-G5, 48 hours): 16900 nM; IC50 ([3]; A549 shAxl9-D3, 48 hours): 15200 nM; IC50 ([3]; A549 shControl, 48 hours): 15400 nM; IC50 ([3]; A549 shMer1-G8, 48 hours): 7200 nM; IC50 ([6]; A172 shAxl8, 48 h): 35 nM; IC50 ([6]; A172 shAxl9, 48 h): 75 nM; IC50 ([6]; A172 shMer1A, 48 h): 820 nM; IC50 ([6]; A172 shMer1B, 48 h): 210 nM
										Sc1ncnc2nc[nH]c12 [6-MP, 6-mercaptopurine]			> 64000	> 64000	2860	3240	increased induction of apoptotic cell death	
2200	330	1010	3320	3840	720	1400	590	910	370	COc1cc([C@@H]2c3cc4c(cc3[C@@H](O[C@@H]3O[C@@H]5CO[C@@H](C)O[C@H]5[C@H](O)[C@H]3O)[C@H]3COC(=O)[C@H]23)OCO4)cc(OC)c1O [VP-16, etoposide]	more sensitive	increased sensitivity	181	173	54	60.3	increased induction of apoptotic cell death	
